Measured values published in US10472324B2, “2-cyano-3-cyclopropyl-3-hydroxy-N-aryl-thioacrylamide derivatives” (Algiax Pharmaceuticals GmbH, priority 2014, dated 2019).

Experiments:
[1] = molecular target: GABA gated Cl-channel (GABA.A receptor complex); assay: GABAA receptor binding assay ([35S]TBPS radioligand); conditions: 3 nM [35S]TBPS, rat cerebral cortex membrane homogenates, 120 min at 22° C.
Protocol: GABAA Receptor Binding Assay:
The affinity of the test compounds for the GABA gated Cl-channel (GABA.A receptor complex) in the rat cerebral cortex was determined in a radioligand binding assay (Lewin et al,. 1989). Membrane homogenates of cerebral cortex are incubated for 120 min at 22° C. with 3 nM [35S]TBPS (-t-butylbicyclophosphoorothionate) in the presence and absence of the test compound.
Following incubation, the samples are filtered rapidly under vacuum through glass fiber filters and rinsed several times with ice-cold buffer using a 96-sample cell harvester. The filters are dried then counted for radioactivity in a scintilliation counter using a scintillation cocktail (Microscint 0, Packard). Each compound was tested at several concentrations to calculate the IC50 values of the affinity to the GABA.A receptor complex in cerebral cortex of rats.

human GABAA α3β3γ2 = human GABAA α3β3γ2 (Homo sapiens (Human), UniProt P18507+P28472+P34903); assay: Patch clamp electrophysiology, positive modulation, HEK293 cells expressing GABAA α3β3γ2; format: cell-based; conditions: GABA EC20 current = 100%
Sequence of human GABAA α3β3γ2 (P34903 29-492): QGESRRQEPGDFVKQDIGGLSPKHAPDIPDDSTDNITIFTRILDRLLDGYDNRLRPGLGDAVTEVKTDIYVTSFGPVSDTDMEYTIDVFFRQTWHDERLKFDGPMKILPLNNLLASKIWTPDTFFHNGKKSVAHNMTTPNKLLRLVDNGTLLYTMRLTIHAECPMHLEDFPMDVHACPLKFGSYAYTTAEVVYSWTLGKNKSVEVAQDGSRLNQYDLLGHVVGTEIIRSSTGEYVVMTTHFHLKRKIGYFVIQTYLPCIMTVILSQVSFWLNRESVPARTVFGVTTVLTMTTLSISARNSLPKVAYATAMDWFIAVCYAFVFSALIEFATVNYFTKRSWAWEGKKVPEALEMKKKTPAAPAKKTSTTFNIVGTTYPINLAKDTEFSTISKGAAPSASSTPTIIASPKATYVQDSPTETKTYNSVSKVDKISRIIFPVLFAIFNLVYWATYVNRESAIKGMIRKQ
Sequence of human GABAA α3β3γ2 (P28472 26-473): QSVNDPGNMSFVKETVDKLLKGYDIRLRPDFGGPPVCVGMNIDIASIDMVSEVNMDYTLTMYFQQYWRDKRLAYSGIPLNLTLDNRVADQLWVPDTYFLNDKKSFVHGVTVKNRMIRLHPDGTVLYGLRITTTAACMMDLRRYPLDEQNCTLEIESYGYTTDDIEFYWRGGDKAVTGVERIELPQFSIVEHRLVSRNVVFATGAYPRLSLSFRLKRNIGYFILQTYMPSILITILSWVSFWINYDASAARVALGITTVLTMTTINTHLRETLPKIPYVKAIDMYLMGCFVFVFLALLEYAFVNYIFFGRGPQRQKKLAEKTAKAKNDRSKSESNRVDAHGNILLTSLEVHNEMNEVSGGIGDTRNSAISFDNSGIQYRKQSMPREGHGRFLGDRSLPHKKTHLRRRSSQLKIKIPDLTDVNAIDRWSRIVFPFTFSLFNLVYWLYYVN
Sequence of human GABAA α3β3γ2 (P18507 40-475): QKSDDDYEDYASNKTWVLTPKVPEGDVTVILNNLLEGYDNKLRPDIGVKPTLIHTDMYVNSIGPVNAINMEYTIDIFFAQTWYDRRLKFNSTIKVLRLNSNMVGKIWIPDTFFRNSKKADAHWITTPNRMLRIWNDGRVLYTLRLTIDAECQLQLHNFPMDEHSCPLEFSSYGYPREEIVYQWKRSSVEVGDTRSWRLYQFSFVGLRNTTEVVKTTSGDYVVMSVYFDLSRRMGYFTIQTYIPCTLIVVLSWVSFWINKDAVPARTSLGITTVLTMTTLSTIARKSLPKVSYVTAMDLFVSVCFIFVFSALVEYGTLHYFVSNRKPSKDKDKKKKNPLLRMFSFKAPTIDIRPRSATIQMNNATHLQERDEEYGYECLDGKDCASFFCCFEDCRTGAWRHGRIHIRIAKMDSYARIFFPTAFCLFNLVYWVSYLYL
Description: (§1) Electrophysiological assays on different subunit combinations of the human GABAA receptor complex.
(§2) The functional positive modulation activity of the test compounds were investigated by using patch clamp techniques on HEK293 cells stably expressing different subunit combinations of the human GABAA receptor complex. In brief, the peak inward currents in response to the GABA (natural ligand of the GABAA receptors) additions in the presence of increasing concentrations of test compound were measured. To calculate the positive modulation activity the mean effect of GABA (EC20 concentration) was set to 100%.
(§3) A value of 100 percent equates to the compound having an effect equivalent to the addition of the EC20 concentration of GABA.

human GABAA α2β3γ2 = human GABAA α2β3γ2 (Homo sapiens (Human), UniProt P18507+P28472+P47869); assay: Patch clamp electrophysiology, positive modulation, HEK293 cells expressing GABAA α2β3γ2; format: cell-based; conditions: GABA EC20 current = 100%
Sequence of human GABAA α2β3γ2 (P47869 29-451): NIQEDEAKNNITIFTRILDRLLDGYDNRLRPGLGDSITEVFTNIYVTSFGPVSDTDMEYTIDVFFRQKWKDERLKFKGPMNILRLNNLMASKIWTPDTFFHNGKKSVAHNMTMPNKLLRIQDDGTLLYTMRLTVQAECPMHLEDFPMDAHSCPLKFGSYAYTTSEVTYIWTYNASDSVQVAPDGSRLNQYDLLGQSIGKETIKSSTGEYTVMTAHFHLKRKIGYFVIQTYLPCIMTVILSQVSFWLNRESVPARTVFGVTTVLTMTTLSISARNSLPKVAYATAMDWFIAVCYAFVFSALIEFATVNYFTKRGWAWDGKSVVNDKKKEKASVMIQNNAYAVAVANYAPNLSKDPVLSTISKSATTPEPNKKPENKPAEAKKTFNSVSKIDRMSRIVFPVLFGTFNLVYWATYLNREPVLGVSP
Sequence of human GABAA α2β3γ2 (P28472 26-473): as the sequence (P28472 26-473) above
Sequence of human GABAA α2β3γ2 (P18507 40-475): as the sequence (P18507 40-475) above
Description: as §1, §2, §3

human GABAA α1β3γ2 = human GABAA α1β3γ2 (Homo sapiens (Human), UniProt P14867+P18507+P28472); assay: Patch clamp electrophysiology, positive modulation, HEK293 cells expressing GABAA α1β3γ2; format: cell-based; conditions: GABA EC20 current = 100%
Sequence of human GABAA α1β3γ2 (P14867 28-456): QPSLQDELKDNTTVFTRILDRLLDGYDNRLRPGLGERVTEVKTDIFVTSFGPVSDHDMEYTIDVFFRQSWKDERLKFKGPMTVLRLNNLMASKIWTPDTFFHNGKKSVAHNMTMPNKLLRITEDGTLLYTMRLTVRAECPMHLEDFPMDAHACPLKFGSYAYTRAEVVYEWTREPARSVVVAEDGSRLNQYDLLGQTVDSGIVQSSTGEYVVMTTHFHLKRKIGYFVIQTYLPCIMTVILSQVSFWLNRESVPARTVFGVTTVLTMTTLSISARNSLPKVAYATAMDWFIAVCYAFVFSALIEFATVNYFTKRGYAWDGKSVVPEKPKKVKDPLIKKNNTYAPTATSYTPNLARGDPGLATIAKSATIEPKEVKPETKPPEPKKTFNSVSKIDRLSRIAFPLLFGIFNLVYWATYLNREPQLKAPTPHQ
Sequence of human GABAA α1β3γ2 (P28472 26-473): as the sequence (P28472 26-473) above
Sequence of human GABAA α1β3γ2 (P18507 40-475): as the sequence (P18507 40-475) above
Description: as §1, §2, §3

[2] = tested on: neuropathic pain induced by spinal nerve ligation (SNL) injury; assay: SNL model or Chung model for peripheral neuropathic pain, mechanical allodynia (von Frey); format: in vivo, rat; conditions: for reversal of neuropathic pain induced by spinal nerve ligation: 10 mg/kg oral gavage for 5 days, rat; for 50% paw withdrawal threshold: cut-off 60 g
Protocol: SNL model or Chung model as in vivo model for peripheral neuropathic pain
Surgery was performed according to the method of Chung et al., 2004 (see List of References). In brief, animals are anesthetized and the hair on their backs is trimmed. Under sterile conditions, a longitudinal incision is made at the lower lumbar and sacral levels, exposing the paraspinal muscles on the left. Connective tissues and muscles are removed by a small scraper, after which bony structures become visible. The L6 vertebra left transverse process of animal was first removed to expose the L4 and L5 spinal nerves. The L5 spinal nerve was then carefully isolated and tightly ligated with 6-0 silk thread. Surgery was always performed on the left leg (Ipsilateral paw), the right leg (contralateral paw) remained intact and served as a control. On completion of the operation, hemostasis is confirmed and the muscles are sutured in layers using silk thread and the skin is closed with metal clips, anesthesia is then discontinued. Axonal degeneration occurs, with all types of axons being approximately equally affected. Pronounced mechanical allodynia follows, accompanied by spontaneous pain behaviors, which lasts for several weeks without recovery. Mechanical allodynia is typically assessed beginning 1-2 weeks post-surgery.
(§4) Mechanical allodynia thresholds were determined according to the methods described by Chaplan and colleagues (Chaplan et al., 1994). At the designated post-operative time points the injured rats were placed in an elevated clear-plastic, wire mesh-bottomed cage. After a 10- to 15-min acclimation period, eight von Frey filaments (Stoelting, Wood Dale, Ill.) with bending forces ranging from 2 to 60 g were used to determine the 50% mechanical threshold for paw withdrawal using the up-and-down method.
After spinal nerve ligation (SNL) injury, individual rats were randomly assigned into a treatment group. The following groups were used:
Group 2: SNL+ Example 1 (10 mg/kg) in vehicle by oral gavage for 5 days from DPO7 (pre-treat) till DPO12.
Group 3: SNL+ Example 2 (10 mg/kg) in vehicle by oral gavage for 5 days from DPO7 (pre-treat) till DPO12.
Group 2: SNL+ Example 3 (10 mg/kg) in vehicle by oral gavage for 5 days from DPO14 till DPO19.
Group 3: SNL+ Example 4 (10 mg/kg) in vehicle by oral gavage for 5 days from DPO14 till DPO19.
Group 4: SNL+ Example 6 (10 mg/kg) in vehicle by oral gavage for 5 days from DPO14 till DPO19.

[3] = tested on: acute pain induced by capsaicin injection in the hindpaw; assay: Capsaicin induced pain model for acute pain, mechanical allodynia (von Frey); format: in vivo, rat; conditions: for reversal of acute pain induced by capsaicin injection: 1 or 10 mg/kg oral gavage, rat hindpaw
Protocol: as §4
Capsaicin induced pain as in vivo model for acute pain
Rats were gently restrained and capsaicin (10 μg in 10 μI of 10% Tween80) in saline was injected into the plantar surface of the hindpaw using a 0.3 ml insulin syringe with a 29-gauge needle (Terumo Europe, Belgium).
After injection of Capsaicin, individual rats were randomly assigned into a treatment group. The following groups were used:
Group 2: Capsaicin injection+ Example 1 (1 mg/kg) in vehicle by oral gavage about 40 minutes after injection.
Group 3: Capsaicin injection+ Example 3 (1 mg/kg) in vehicle by oral gavage about 40 minutes after injection.
Group 2: Capsaicin injection+ Example 2 (10 mg/kg) in vehicle by oral gavage about 40 minutes after injection.
Group 3: Capsaicin injection+ Example 6 (10 mg/kg) in vehicle by oral gavage about 40 minutes after injection.

[4] = Experiment 1, 10 mg/kg oral gavage 5 days DPO7-DPO12, at DPO35 (end of experiment)
[5] = Experiment 1, 1 mg/kg oral gavage about 40 minutes after capsaicin, 150 minutes after capsaicin injection
[6] = Experiment 1, 1 mg/kg oral gavage about 40 minutes after capsaicin, 210 minutes after capsaicin injection
[7] = Experiment 2, 10 mg/kg oral gavage about 40 minutes after capsaicin, 150 minutes after capsaicin injection
[8] = Experiment 2, 10 mg/kg oral gavage about 40 minutes after capsaicin, 210 minutes after capsaicin injection
[9] = Experiment 2, 10 mg/kg oral gavage 5 days DPO14-DPO19, after DPO21 till end of experiment at DPO35
[10] = Experiment 2, 10 mg/kg oral gavage 5 days DPO14-DPO19, at DPO21

Structure (SMILES)	IC50 [1] [µM]	GABAA α3β3γ2 normalized percent current (human GABAA α3β3γ2; 10 μM test compound) [%]	GABAA α2β3γ2 normalized percent current (human GABAA α2β3γ2; 10 μM test compound) [%]	GABAA α1β3γ2 normalized percent current (human GABAA α1β3γ2; 10 μM test compound) [%]	reversal of neuropathic pain induced by spinal nerve ligation [2]	reversal of acute pain induced by capsaicin injection [3]	50% paw withdrawal threshold [2, 10]	other results
Cc1cc(NC(=S)C(C#N)=C(O)C2CC2)ccc1C(F)(F)F [Example 1, 2-Cyano-3-cyclopropyl-3-hydroxy-N-(3-methyl-4-trifluormethyl-phenyl)-thioacrylamide]	5.3	697	614	792	can reverse neuropathic pain	can reverse acute pain	–	50% paw withdrawal threshold [2, 4]: 30 g; 50% paw withdrawal threshold [3, 5]: 30 g; 50% paw withdrawal threshold [3, 6]: ~50 g
Cc1cc(NC(=S)C(C#N)=C(O)C2CC2)ccc1F [Example 2, 2-Cyano-3-cyclopropyl-N-(4-fluoro-3-methyl-phenyl)-3-hydroxy-thioacrylamide]	8.3	–	–	–	can reverse neuropathic pain	can reverse acute pain	–	GABAA α3β3γ2 normalized percent current (human GABAA α3β3γ2; 50 μM test compound): 835%; GABAA α2β3γ2 normalized percent current (human GABAA α2β3γ2; 50 μM test compound): 470%; GABAA α1β3γ2 normalized percent current (human GABAA α1β3γ2; 50 μM test compound): 734%; 50% paw withdrawal threshold ([2]; Experiment 1, 10 mg/kg oral gavage 5 days DPO7-DPO12, at DPO21): 40 g; 50% paw withdrawal threshold [2, 4]: 40 g; 50% paw withdrawal threshold [3, 7]: ~40 g; 50% paw withdrawal threshold [3, 8]: ~33 g
Cc1cc(NC(=S)C(C#N)=C(O)C2CC2)ccc1[N+](=O)[O-] [Example 3, 2-Cyano-3-cyclopropyl-3-hydroxy-N-(3-methyl-4-nitro-phenyl)-thioacrylamide]	6	–	–	–	can reverse neuropathic pain	can reverse acute pain	about 35 g	GABAA α3β3γ2 normalized percent current (human GABAA α3β3γ2; 50 μM test compound): 469%; GABAA α2β3γ2 normalized percent current (human GABAA α2β3γ2; 50 μM test compound): 380%; GABAA α1β3γ2 normalized percent current (human GABAA α1β3γ2; 50 μM test compound): 424%; 50% paw withdrawal threshold [2, 9]: 23 to 25 g; 50% paw withdrawal threshold [3, 5]: 40 g; 50% paw withdrawal threshold [3, 6]: ~50 g
N#CC(C(=S)Nc1ccc([N+](=O)[O-])cc1)=C(O)C1CC1 [Example 4, 2-Cyano-3-cyclopropyl-3-hydroxy-N-(4-nitro-phenyl)-thioacrylamide]	8.7	–	–	–	can reverse neuropathic pain	–	~50 g	50% paw withdrawal threshold [2, 9]: 30 g
N#CC(C(=S)Nc1ccc(SC(F)(F)F)cc1)=C(O)C1CC1 [Example 5, 2-Cyano-3-cyclopropyl-3-hydroxy-N-(4-trifluoromethylsulfanyl-phenyl)-thioacrylamide]	7.7	315	453	707	–	–	–	–
Cc1cc(NC(=S)C(C#N)=C(O)C2CC2)ccc1C#N [Example 6, 2-Cyano-N-(4-cyano-3-methyl-phenyl)-3-cyclopropyl-3-hydroxy-thioacrylamide]	7.9	357	286	338	can reverse neuropathic pain	can reverse acute pain	~40 g	50% paw withdrawal threshold [3, 7]: 35 g; 50% paw withdrawal threshold [3, 8]: 25 g
N#CC(C(=S)Nc1ccc(C#N)cc1)=C(O)C1CC1 [Example 7, 2-Cyano-N-(4-cyano-phenyl)-3-cyclopropyl-3-hydroxy-thioacrylamide]	9.6	–	–	–	–	–	–	–
N#CC(C(=S)Nc1ccc([S+]([O-])C(F)(F)F)cc1)=C(O)C1CC1 (stereo not shown) [Example 8, 2-Cyano-3-cyclopropyl-3-hydroxy-N-(4-trifluoromethanesulfinyl-phenyl)-thioacrylamide]	10.3	–	–	–	–	–	–	–
N#CC(C(=S)Nc1ccc(S(=O)(=O)C(F)(F)F)cc1)=C(O)C1CC1 [Example 9, 2-Cyano-3-cycopropyl-3-hydroxy-N-(4-trifluoromethanesulfonyl-phenyl)-thioacrylamide]	5	328	259	286	–	–	–	–
